As a reminder, the MIC is the lowest concentration found to suppress growth. A lower MIC goes with greater potency. What is called minimal effective concentration is the lowest level tested that produced the effect sought. Read a high minimal effective concentration as a need for much substance.

In brackets after ≈: the same amount, converted by molar mass.

What all share (assay type): cell-based
One test concerns Candida albicans 90028. Briefly: In vitro antifungal assay (Example IX), microdilution broth, MIC. The conditions noted are these: minimum inhibitory concentration (≥50% inhibition), 35° C., 40-48 h, RPMI1640. In short, it runs like this:
(§1)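 CLSI broth microdilution in RPMI1640 with 2.5×10^3 cells/mL and final compound concentrations of 2-0.0019 μg/mL (1% DMSO). C. albicans 90028 plates were incubated at 35° C. for 40-48 h and C. neoformans H99 for 72 h. MIC was read as minimum inhibitory concentration, verified at 600 nm.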

The test system of test [1] is Cryptococcus neoformans H99. The test is described as above. The conditions noted are these: minimum inhibitory concentration (≥50% inhibition), 35° C., 72 h, RPMI1640. In short, it runs like this:
as §1

In test [2] the test system is Aspergillus fumigatus MYA3626. Briefly: In vitro antifungal assay (Example IX), microdilution broth, MEC. As to conditions: minimum effective concentration (shortening of hyphae), 35° C., 40-48 h, RPMI1640. In a few lines: (§2)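 Spore suspensions of A. fumigatus and R. pusillus adjusted to 1-2×10^4 spores/mL in RPMI1640 and exposed to compound dilutions prepared in DMSO, by broth microdilution. MEC taken as the lowest concentration shortening hyphae versus DMSO control wells, read as for echinocandins.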
Background: In broth dilution the organism is exposed to a series of concentrations in liquid medium.

The test system of test [3] is Rhizomucor pusillus 46342. The test is described as above. The conditions noted are these: minimum effective concentration (shortening of hyphae), 35° C., 40-48 h, RPMI1640. In short, it runs like this:
as §2

The subject of a further test is Cryptococcus gattii. Briefly: In vitro antifungal assay (Example IX), microdilution broth, MIC. The conditions noted are these: minimum inhibitory concentration (≥50% inhibition), 35° C., 72 h (Cryptococcus), RPMI1640. The protocol: Preparation of Fungal Suspension. C. albicans 90028 and C. neoformans H99 strains were streaked from frozen stocks at −80° C. onto Sabouraud Dextrose Agar (SDA) plates. These were allowed to grow for 24 h (C. albicans) and 48 h (C. neoformans) at 35° C. before using them in the assay. 5-6 individual colonies were picked and diluted into sterile water to obtain a fungal suspension. The cell density of the suspension was determined and the culture diluted with RPMI1640 medium to obtain a fungal suspension of 2.5×10^3 cells/mL. The suspension was used in the MIC measurement as described below.
Preparation of Compound Stocks and Intermediate Dilutions: The compounds were weighed and DMSO was added to prepare a 10 mg/mL stock. The solutions were mixed by vortexing and sonication at 37° C. for 5-10 mins. The resulting solutions were sterile filtered using a PTFE filter, and aliquoted (12 μL or as needed) and stored at −20° C. Intermediate compound dilutions were prepared in sterile polypropylene tubes in 100% DMSO. The compound stock solution was first diluted in DMSO to obtain a concentration of […] to 0.19 μg/mL.
MIC/MEC Measurement: 99 μL 1 of the fungal suspension in RPMI1640 prepared as above was added to each well of a 96-well round bottom assay plate. 1 μL of the intermediate compound dilutions (200-0.19 μg/mL) were added to wells of the plate. This led to a 100-fold dilution of the intermediate dilutions resulting in a final compound concentration of 2-0.0019 μg/mL in the plate. 1 μL of DMSO was added to “No drug” control wells. The solutions were mixed by shaking on a plate shaker for 10 mins and plates incubated at 35° C. for 40-48 h (C. albicans, A. fumigatus, R. pusillus) and 72 h (Cryptococcus). […] This was validated by thorough mixing and reading at 600 nm on a microplate reader. The minimum concentration that led to shortening of hyphae as compared to hyphal growth in DMSO control wells was determined as the minimum effective concentration (MEC) for A. fumigatus and R. pusillus (as read for echinocandins). The use of the MIC and MEC endpoints against yeasts and molds, respectively has been described by Pfaller M A, Duncanson F, Messer S A, Moet G J, Jones R N, Castanheira M. Antimicrob Agents Chemother. 2011. 55(11):5155-8. In vitro activity of a novel broad-spectrum antifungal, E1210, tested against Aspergillus spp. determined by CLSI and EUCAST broth microdilution methods. Results are shown in Table 2, and the letters indicate the following ranges in μg/mL: […]

As to `N#CCc1ccc(Cc2cc(-c3cccnc3N)on2)cc1` [compound 2, 2-(4-((5-(2-aminopyridin-3-yl)isoxazol-3-yl)methyl)phenyl)acetonitrile], the MIC (in the test on Candida albicans 90028; in test [1]) was over 1 µg/mL in each case. The minimal effective concentration in test [2] was 0.1 to 1 µg/mL; in test [3] it was over 1 µg/mL.
As to `COc1ccc(OCc2ccc(Cc3cc(-c4cccnc4N)on3)cc2)cc1OC` [compound 104, 3-(3-(4-((3,4-dimethoxyphenoxy)methyl)benzyl)isoxazol-5-yl)pyridin-2-amine], the minimum inhibitory concentration (MIC) (with Candida albicans 90028; in test [1]) was over 1 µg/mL in each case. The minimal effective concentration in test [2] and in test [3] was over 1 µg/mL in each case.
With `N#Cc1ccc(COc2ccc(Cc3cc(-c4cccnc4N)on3)cc2)cc1` [compound 113, 4-((4-((5-(2-aminopyridin-3-yl)isoxazol-3-yl)methyl)phenoxy)methyl)benzonitrile], in the test on Candida albicans 90028, the MIC was over 1 µg/mL. The figures for the minimal effective concentration in test [2] and in test [3] were 0.1 to 1 µg/mL and over 1 µg/mL, respectively.
In the test with Candida albicans 90028, `Nc1ncccc1-c1cc(Cc2ccc(OCc3ccc(F)nc3)cc2)no1` [compound 116, 3-(3-(4-((6-fluoropyridin-3-yl)methoxy)benzyl)isoxazol-5-yl)pyridin-2-amine] had an MIC of over 1 µg/mL. The figures for the minimal effective concentration in test [2] and in test [3] were 0.01 to 0.1 µg/mL and over 1 µg/mL, respectively.
For `Nc1ncccc1-c1cc(Cc2ccc(Oc3c[n+]([O-])ccn3)cc2)no1` [compound 119, 3-(4-((5-(2-aminopyridin-3-yl)isoxazol-3-yl)methyl)phenoxy)pyrazine 1-oxide], in the test on Candida albicans 90028, the MIC was over 1 µg/mL. The minimal effective concentration in test [2] and in test [3] was over 1 µg/mL each time.
As to `Nc1ncccc1-c1cc(Cc2ccc(Cn3ccccc3=O)cc2)no1` [compound 126, 1-(4-((5-(2-aminopyridin-3-yl)isoxazol-3-yl)methyl)benzyl)pyridin-2(1H)-one], the MIC with Candida albicans 90028 was over 1 µg/mL. In addition, the minimal effective concentration in test [2] and in test [3] was over 1 µg/mL throughout.
As for `Nc1ncccc1-c1cc(Cc2ccc(OCc3ccccc3C(F)(F)F)nc2)no1` [compound 128, 3-(3-((6-((2-(trifluoromethyl)benzyl)oxy)pyridin-3-yl)methyl)isoxazol-5-yl)pyridin-2-amine], the minimum inhibitory concentration (MIC) in the test with Candida albicans 90028 was over 1 µg/mL. Besides, the values for the minimal effective concentration in test [2] and in test [3] were 0.1 to 1 µg/mL and over 1 µg/mL, respectively.
`Nc1ncccc1-c1cc(Cc2ccc(OC3CCCc4cccnc43)nc2)no1` (stereo not shown) [compound 129, 3-(3-((6-((5,6,7,8-tetrahydroquinolin-8-yl)oxy)pyridin-3-yl)methyl)isoxazol-5-yl)pyridin-2-amine] showed an MIC against Candida albicans 90028 of over 1 µg/mL. Besides, the minimal effective concentration in test [2] and in test [3] was over 1 µg/mL throughout.
`Nc1ccc(-c2cc(Cc3ccc(OCc4nccs4)cc3)no2)c(N)n1` [compound 133, 3-(3-(4-(thiazol-2-ylmethoxy)benzyl)isoxazol-5-yl)pyridine-2,6-diamine] had an MIC with Candida albicans 90028 of 0.1 to 1 µg/mL (≈ 0.264 to 2.64 µM). Moreover, the minimal effective concentration in test [2] and in test [3] was 0.1 to 1 µg/mL each time.
The compound `COc1ccc(F)cc1OCc1ccc(Cc2cc(-c3cccnc3N)on2)cc1` [compound 192, 3-(3-(4-((5-fluoro-2-methoxyphenoxy)methyl)benzyl)isoxazol-5-yl)pyridin-2-amine] gave an MIC against Candida albicans 90028 of 0.1 to 1 µg/mL (≈ 0.247 to 2.47 µM). Moreover, the minimal effective concentration is 0.1 to 1 µg/mL in test [2] and over 1 µg/mL in test [3].
In the case of `Nc1ncccc1-c1cc(Cc2ccc(/C=C/Cc3ccccc3)cc2)no1` [compound 194, (E)-3-(3-(4-(3-phenylprop-1-en-1-yl)benzyl)isoxazol-5-yl)pyridin-2-amine], the MIC with Candida albicans 90028 is over 1 µg/mL. The minimal effective concentration in test [2] is 0.1 to 1 µg/mL; in test [3] it was over 1 µg/mL.
In the test on Candida albicans 90028, `Nc1ncccc1-c1cc(Cc2ccc(OCc3ccnc(Cl)c3F)nc2)no1` [compound 210, 3-(3-((6-((2-chloro-3-fluoropyridin-4-yl)methoxy)pyridin-3-yl)methyl)isoxazol-5-yl)pyridin-2-amine] displayed a minimal inhibitory concentration (MIC) of over 1 µg/mL. Further, the minimal effective concentration in test [2] and in test [3] was over 1 µg/mL each time.
In the test with Candida albicans 90028, `CS(=O)(=O)Nc1cccc(Cc2ccc(Cc3cc(-c4cccnc4N)on3)cc2)c1` [compound 211, N-(3-(4-((5-(2-aminopyridin-3-yl)isoxazol-3-yl)methyl)benzyl)phenyl)methanesulfonamide] gave an MIC of over 1 µg/mL. The minimal effective concentration in test [2] and in test [3] was over 1 µg/mL in each case.
Take `Nc1ncccc1-c1cc(Cc2ccc(OCCCc3ccc(OCc4ccccc4)cc3)nc2)no1` [compound 214, 3-(3-((6-(3-(4-(benzyloxy)phenyl)propoxy)pyridin-3-yl)methyl)isoxazol-5-yl)pyridin-2-amine]: in the test on Candida albicans 90028, the MIC is over 1 µg/mL. Besides, the minimal effective concentration in test [2] and in test [3] was over 1 µg/mL each time.
As for `Nc1ncccc1-c1cc(Cc2ccc(OCC(c3ccccc3)c3ccccc3)nc2)no1` [compound 215, 3-(3-((6-(2,2-diphenylethoxy)pyridin-3-yl)methyl)isoxazol-5-yl)pyridin-2-amine], the MIC in the test with Candida albicans 90028 was over 1 µg/mL. For the same compound, the minimal effective concentration in test [2] and in test [3] was over 1 µg/mL in each case.
On to `Cc1c(OCC(F)(F)F)ccnc1COc1ccc(Cc2cc(-c3cccnc3N)on2)cn1` [compound 217, 3-(3-((6-((3-methyl-4-(2,2,2-trifluoroethoxy)pyridin-2-yl)methoxy)pyridin-3-yl)methyl)isoxazol-5-yl)pyridin-2-amine], for which the MIC (against Candida albicans 90028; in test [1]; in the test with Cryptococcus gattii) was over 1 µg/mL throughout. Further, in test [2], the minimal effective concentration is over 1 µg/mL.
For `Nc1ncccc1-c1cc(Cc2ccc(OCc3cc(Cl)nc(Cl)c3)nc2)no1` [compound 219, 3-(3-((6-((2,6-dichloropyridin-4-yl)methoxy)pyridin-3-yl)methyl)isoxazol-5-yl)pyridin-2-amine], the MIC (in the test on Candida albicans 90028; in test [1]; in the test on Cryptococcus gattii) was over 1 µg/mL each time. Further, the minimal effective concentration in test [2] lay within 0.1 to 1 µg/mL.
Turning to `Nc1ncccc1-c1cc(Cc2ccc(N3CCOCC3)nc2)no1` [compound 227, 3-(3-((6-morpholinopyridin-3-yl)methyl)isoxazol-5-yl)pyridin-2-amine], in the test with Candida albicans 90028, the MIC is over 1 µg/mL. Besides, the minimal effective concentration in test [2] and in test [3] was over 1 µg/mL throughout.
For the compound `Nc1ncccc1-c1cc(Cc2ccc(S(=O)(=O)N3CCOCC3)cc2)no1` [compound 228, 3-(3-(4-(morpholinosulfonyl)benzyl)isoxazol-5-yl)pyridin-2-amine], in the test with Candida albicans 90028, the MIC is over 1 µg/mL. Besides, the minimal effective concentration in test [2] and in test [3] was over 1 µg/mL throughout.
For the compound `Nc1ncccc1-c1cc(Cc2ccc(N3CCCC3c3ccccc3)nc2)no1` (stereo not shown) [compound 229, 3-(3-((6-(2-phenylpyrrolidin-1-yl)pyridin-3-yl)methyl)isoxazol-5-yl)pyridin-2-amine], in the test on Candida albicans 90028, the MIC is over 1 µg/mL. Besides, the minimal effective concentration in test [2] and in test [3] was over 1 µg/mL in each case.
Take `Nc1ncccc1-c1cc(Cc2ccc(N3CCCCC3)nc2)no1` [compound 230, 3-(3-((6-(piperidin-1-yl)pyridin-3-yl)methyl)isoxazol-5-yl)pyridin-2-amine]: the MIC in the test with Candida albicans 90028 lay in the range of 0.1 to 1 µg/mL (≈ 0.298 to 2.98 µM). The figures for the minimal effective concentration in test [2] and in test [3] were 0.1 to 1 µg/mL and over 1 µg/mL, respectively.

For the origin of these results see patent US11512079B2, “Heterocycle substituted pyridine derivative antifungal agents” (Amplyx Pharmaceuticals, Inc., priority 2017, dated 2022).
